In this assay the test system is Pseudomonas aeruginosa. Kind of assay: MIC (minimum inhibition concentration) against P. aeruginosa. Format: cell-based. As for the experimental part: Compositions with clarithromycin were prepared by cold physical process. Powder clarithromycin compositions were dissolved in water to obtaining nanoemulsion. The control free clarithromycin was dissolved in 1% DMSO. Emulsion dried using lyophilization. Samples were tested in three independent experiments, with triplicate in each experiment. Particle size was measured using DLS. MIC data (minimum inhibition concentrations) of the formulated and free antibiotic were compared.

As for `CC[C@H]1OC(=O)[C@H](C)[C@@H](O[C@H]2C[C@@](C)(OC)[C@@H](O)[C@H](C)O2)[C@H](C)[C@@H](O[C@@H]2O[C@H](C)C[C@H](N(C)C)[C@H]2O)[C@](C)(OC)C[C@@H](C)C(=O)[C@H](C)[C@@H](O)[C@]1(C)O` [Free clarithromycin, clarithromycin], the MIC turned out to be 0.0625%.
